Assay: Small molecule hydrolysis of model oxime and oxacarboline, followed by liquid chromatography
Assay type: physicochemical
Conditions: 1 μM, buffered solutions at pH 4.5 or 5.0, room temperature, over two days
Procedure: Small molecule hydrolysis: Hydrolysis solutions contained 1 μM 5a or 5b, 25 μM phenylalanine as an internal standard, and 5 mM sodium acetate at the appropriate pH. The solutions were incubated at room temperature and 50 μL aliquots were repeatedly analyzed by liquid chromatography on an Agilent 1200 instrument using an Agilent Poroshell 120 EC-C18 reverse phase column (4.6×50 mm) with a solvent flow rate of 0.4 mL/min. The following gradient was employed (time (min), % MeCN in H2O with 0.1% TFA): 0, 5; 10, 95; 12, 95; 14, 5; 19, 5. The time of the first injection for each solution was assigned as t=0. Integrals of the absorption peaks for 5a and 5b at 440 nm were normalized against the phenylalanine peak for each injection.

Structure (SMILES)	conjugate remained intact (liquid chromatography)	hydrolysis of conjugate (liquid chromatography)
CN1OCc2c(c3ccccc3n2CCC(=O)O)C1CCNC(=O)c1ccc(-c2c3ccc(=O)cc-3oc3cc(O)ccc23)c(C(=O)O)c1 (centres unmarked) [Compound 5b, 5-((2-(5-(2-Carboxyethyl)-2-methyl-1,2,4,5-tetrahydro-[1,2]oxazino [5,4-b]indol-1-yl)ethyl)carbamoyl)-2-(6-hydroxy-3-oxo-3H-xanthen-9-yl)benzoic acid]	over 90%	–
O=C(NCCC=NOCc1ccccc1)c1ccc(-c2c3ccc(=O)cc-3oc3cc(O)ccc23)c(C(=O)O)c1 (racemic) [Compound 5a, 5-((3-((Benzyloxy)imino)propyl)carbamoyl)-2-(6-hydroxy-3-oxo-3H-xanthen-9-yl)benzoic acid]	–	majority of oxime 5a hydrolyzed
